Patent US4362870A, “Selective opioid receptor alkylating agents” (priority 1981, dated 1982)
pIC50: −log10 of the molar value. Where two headings read alike, the source gives them in different places.

Experiments:
[1] = test system: electrically stimulated guinea pig ileal longitudinal muscle; test: cells; format: cell-based; conditions: for IC50 Ratio FNA/Control: agonist IC50 after FNA (2 × 10^-8, 30 min, 20 washes) / control
morphine analgesia = test: Duration of inhibitory effect on morphine analgesia, mouse; format: in vivo; conditions: HCl salt; 4.8 nmol/mouse intracebroventricular
Protocol: At 4.8 nmol/mouse (intracebroventricular) or at 5 mg/kg i.p. in the rat, the antagonist effects of FNA (as its HCl salt) lasted at least three days (FIG. 1). The vertical bars represent 95% confidence intervals of the ED50 values.

effects of morphine [2] = test: Duration of inhibitory effect on morphine, rat; format: in vivo; conditions: HCl salt; 5 mg/kg i.p. in the rat
Description: (§1) The vertical bars represent 95% confidence intervals of the ED50 values.

[3] = Toxic effects at a single dose; format: in vivo; conditions: single dose which completely blocks morphine for at least three days
[4] = test system: analgesic response of mice; test: Analgesic response of mice to FNA; format: in vivo, mouse
Protocol: FIG. 2 is a graphic representation of the analgesic response of mice to FNA.
The analgesic response of mice to FNA was tested.

effects of morphine [5] = test: Duration of inhibitory effect on morphine (species not given); format: in vivo
Description: as §1

[6] = test system: electrically stimulated guinea pig ileal longitudinal muscle strip; test: Guinea pig ileum: morphine IC50 ratio before and after exposure to the test compound (Examples V-XIV); format: cell-based; conditions: 30 min exposure, 20 washes
Protocol: Details of the assay are found in Rang, Br. J. PHarmacol., 22, 356 (1964).
of the electrically stimulated guinea pig ileal longitudinal muscle strip
(treated) exposure (30 min) of the ileal preparation to the test compound
(2 × 10^-8 M) followed by 20 washes are expressed as a ratio, […]

[7] = background statement; cited from earlier work
[8] = test system: β-endorphin-induced stimulation of food intake; conditions: prior report; cited from earlier work

CSCC[C@H](NC(=O)[C@H](Cc1ccccc1)NC(=O)CNC(=O)[C@@H](C)NC(=O)[C@@H](N)Cc1ccc(O)cc1)C(N)=O [D-Ala^2 -- Met-- enkephlin- Amide]
pIC50 ([1]; after FNA (2 × 10^-8) incubated 30 minutes, washed 20 times, read-out: IC50 After FNA): 7.54
IC50 Ratio FNA/Control [1]: 6.9
pIC50 ([1]; control, before FNA, guinea pig ileum, read-out: IC50 Control): 8.38

COC(=O)/C=C/C(=O)N[C@@H]1CC[C@@]2(O)[C@H]3Cc4ccc(O)c5c4[C@@]2(CCN3CC2CC2)[C@H]1O5 [FNA, fumarnaltrexamine]
duration of antagonist effects (morphine analgesia): at least three
inhibition of agonist effects of nalorphine or pentazocine ([1]; FNA 2×10^-8 M, 30 minutes): did not inhibit the agonist effects of nalorphine or pentazocine
inhibition of response to morphine and enkephalin ([1]; FNA 2×10^-8 M, 30 minutes): inhibited irreversibly
block of agonist effects of morphine, enkephalin, pentazocine and nalorphine (selectivity) ([1]; electrically stimulated guinea pig ileum, summary statement in description): irreversibly block the agonist effects of morphine or enkephalin but not the agonist effects of pentazocine or nalorphine
duration of antagonist effects (effects of morphine [2]): at least three
toxic effects [3]: no toxic effects
analgesia [4]: reversible analgesia
reversal of analgesia by its own antagonistic properties [4]: not reversed by its own antagonistic properties
duration of complete block of the effects of morphine (effects of morphine [5]; single dose): at least three

CC(=O)/C=C/C(=O)N[C@@H]1CC[C@@]2(O)[C@H]3Cc4ccc(O)c5c4[C@@]2(CCN3CC2CC2)[C@H]1O5 [IX]
IC50 Ratio, morphine IC50 (treated)/morphine IC50 (control) ([6]; test compound 2 × 10^-8 M): 6.4

C=CCN1CC[C@]23c4c5ccc(O)c4O[C@H]2[C@@H](O)C=C[C@H]3[C@H]1C5 [Nalorphine]
pIC50 ([1]; Cavia porcellus, 0.5 h, after FNA (2 × 10^-8) incubated 30 minutes, washed 20 times, read-out: IC50 After FNA): 7.60
pIC50 ([1]; Cavia porcellus, control, before FNA, guinea pig ileum, read-out: IC50 Control): 7.55
IC50 Ratio FNA/Control [1]: 0.9

O=C(/C=C/C(=O)OCCc1ccccc1)N[C@@H]1CC[C@@]2(O)[C@H]3Cc4ccc(O)c5c4[C@@]2(CCN3CC2CC2)[C@H]1O5 [VIII]
IC50 Ratio, morphine IC50 (treated)/morphine IC50 (control) ([6]; test compound 2 × 10^-8 M): 12.8

O=C(/C=C/C(=O)OCc1ccccc1)N[C@@H]1CC[C@@]2(O)[C@H]3Cc4ccc(O)c5c4[C@@]2(CCN3CC2CC2)[C@H]1O5 [VII]
IC50 Ratio, morphine IC50 (treated)/morphine IC50 (control) ([6]; test compound 2 × 10^-8 M): 3.4

CCCOC(=O)/C=C/C(=O)N[C@@H]1CC[C@@]2(O)[C@H]3Cc4ccc(O)c5c4[C@@]2(CCN3CC2CC2)[C@H]1O5 [VI]
IC50 Ratio, morphine IC50 (treated)/morphine IC50 (control) ([6]; test compound 2 × 10^-8 M): 4.4

CCOC(=O)/C=C/C(=O)N[C@@H]1CC[C@@]2(O)[C@H]3Cc4ccc(O)c5c4[C@@]2(CCN3CC2CC2)[C@H]1O5 [V]
IC50 Ratio, morphine IC50 (treated)/morphine IC50 (control) ([6]; test compound 2 × 10^-8 M): 2.8

Oc1ccc2c3c1O[C@H]1[C@H](N=C=S)CC[C@@]4(O)[C@@H](C2)N(CC2CC2)CC[C@]314 [XIII]
IC50 Ratio, morphine IC50 (treated)/morphine IC50 (control) ([6]; test compound 2 × 10^-8 M): 2.3

O=C(CI)N[C@@H]1CC[C@@]2(O)[C@H]3Cc4ccc(O)c5c4[C@@]2(CCN3CC2CC2)[C@H]1O5 [XII]
IC50 Ratio, morphine IC50 (treated)/morphine IC50 (control) ([6]; test compound 10^-6 M): 25.6

C=CCN1CC[C@]23c4c5ccc(O)c4O[C@H]2[C@H](NC(=O)/C=C/C(=O)OC)CC[C@@]3(O)[C@H]1C5 [XIV]
IC50 Ratio, morphine IC50 (treated)/morphine IC50 (control) ([6]; test compound 10^-7 M): 6.4

C=C(Cl)C(=O)N[C@@H]1CC[C@@]2(O)[C@H]3Cc4ccc(O)c5c4[C@@]2(CCN3CC2CC2)[C@H]1O5 [XI]
IC50 Ratio, morphine IC50 (treated)/morphine IC50 (control) ([6]; test compound 2 × 10^-8 M): 8.2

C=CC(=O)N[C@@H]1CC[C@@]2(O)[C@H]3Cc4ccc(O)c5c4[C@@]2(CCN3CC2CC2)[C@H]1O5 [X]
IC50 Ratio, morphine IC50 (treated)/morphine IC50 (control) ([6]; test compound 2 × 10^-8 M): 1.9

CC(C)C[C@H](NC(=O)[C@H](Cc1ccccc1)NC(=O)CNC(=O)CNC(=O)[C@@H](N)Cc1ccc(O)cc1)C(=O)O [enkephalin]
hypotensive action [7]: potent hypotensive agents

C=CCN1CC[C@]23c4c5ccc(O)c4O[C@H]2C(=O)CC[C@@]3(O)[C@H]1C5 [naloxone, reference compound]
antagonistic effect (effects of morphine [5]; tested 2 hours after administration): its effect had already dissipated
block of β-endorphin-induced stimulation of food intake [8]: blocked
